Here are results for 2 compounds from publication PMC8617627, “Novel DYRK1A Inhibitor Rescues Learning and Memory Deficits in a Mouse Model of Down Syndrome” (Pharmaceuticals, 2021).

Read-outs that look alike come from different tables or passages of the source.

Holding throughout (experiment): Kinase profile (33P ATP filter binding)
Format in all cases: biochemical

One assay has as its target JAK2 (Homo sapiens, UniProt O60674).
For a further assay, the target named is p38b MAPK (Homo sapiens, UniProt Q15759). The note with it: read-out: Remaining protein kinase activity.
Another assay addresses IGF-1R (Homo sapiens, UniProt P08069). Conditions: read-out: Remaining protein kinase activity.
Another assay addresses DAPK1 (Homo sapiens, UniProt P53355). Conditions: read-out: Remaining protein kinase activity.
The next assay concerns the target T1, GCK (Homo sapiens, UniProt Q12851).
T1 sequence (Q12851 1-820): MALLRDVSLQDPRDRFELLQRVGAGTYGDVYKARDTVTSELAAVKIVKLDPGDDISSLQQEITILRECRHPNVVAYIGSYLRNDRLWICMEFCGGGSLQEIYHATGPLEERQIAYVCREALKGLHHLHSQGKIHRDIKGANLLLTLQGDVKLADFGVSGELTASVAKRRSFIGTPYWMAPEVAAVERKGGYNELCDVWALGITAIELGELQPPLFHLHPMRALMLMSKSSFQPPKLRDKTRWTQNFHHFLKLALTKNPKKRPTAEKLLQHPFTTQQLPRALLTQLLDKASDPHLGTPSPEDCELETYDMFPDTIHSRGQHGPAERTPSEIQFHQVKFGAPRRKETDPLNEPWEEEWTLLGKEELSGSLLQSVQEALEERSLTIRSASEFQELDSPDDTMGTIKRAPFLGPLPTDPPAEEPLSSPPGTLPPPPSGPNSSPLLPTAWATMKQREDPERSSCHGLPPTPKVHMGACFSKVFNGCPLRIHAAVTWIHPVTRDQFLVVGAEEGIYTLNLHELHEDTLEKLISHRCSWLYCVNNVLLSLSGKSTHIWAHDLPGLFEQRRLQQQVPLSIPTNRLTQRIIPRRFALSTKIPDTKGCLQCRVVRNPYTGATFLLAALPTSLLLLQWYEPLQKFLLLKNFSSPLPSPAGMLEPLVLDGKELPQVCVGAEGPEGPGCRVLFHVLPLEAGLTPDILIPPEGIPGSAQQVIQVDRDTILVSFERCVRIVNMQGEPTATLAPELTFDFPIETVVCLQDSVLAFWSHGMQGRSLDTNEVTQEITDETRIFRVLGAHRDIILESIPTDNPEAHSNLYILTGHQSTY
The note with it: read-out: Remaining protein kinase activity.

The next assay has as its target SRPK1 (Homo sapiens, UniProt Q96SB4). Conditions: read-out: Remaining protein kinase activity.
The target in another assay is SmMLCK (Homo sapiens, UniProt Q15746). Conditions: read-out: Remaining protein kinase activity.
The next assay addresses T2, TAO1 (Homo sapiens, UniProt Q7L7X3).
T2 sequence (Q7L7X3 1-1001): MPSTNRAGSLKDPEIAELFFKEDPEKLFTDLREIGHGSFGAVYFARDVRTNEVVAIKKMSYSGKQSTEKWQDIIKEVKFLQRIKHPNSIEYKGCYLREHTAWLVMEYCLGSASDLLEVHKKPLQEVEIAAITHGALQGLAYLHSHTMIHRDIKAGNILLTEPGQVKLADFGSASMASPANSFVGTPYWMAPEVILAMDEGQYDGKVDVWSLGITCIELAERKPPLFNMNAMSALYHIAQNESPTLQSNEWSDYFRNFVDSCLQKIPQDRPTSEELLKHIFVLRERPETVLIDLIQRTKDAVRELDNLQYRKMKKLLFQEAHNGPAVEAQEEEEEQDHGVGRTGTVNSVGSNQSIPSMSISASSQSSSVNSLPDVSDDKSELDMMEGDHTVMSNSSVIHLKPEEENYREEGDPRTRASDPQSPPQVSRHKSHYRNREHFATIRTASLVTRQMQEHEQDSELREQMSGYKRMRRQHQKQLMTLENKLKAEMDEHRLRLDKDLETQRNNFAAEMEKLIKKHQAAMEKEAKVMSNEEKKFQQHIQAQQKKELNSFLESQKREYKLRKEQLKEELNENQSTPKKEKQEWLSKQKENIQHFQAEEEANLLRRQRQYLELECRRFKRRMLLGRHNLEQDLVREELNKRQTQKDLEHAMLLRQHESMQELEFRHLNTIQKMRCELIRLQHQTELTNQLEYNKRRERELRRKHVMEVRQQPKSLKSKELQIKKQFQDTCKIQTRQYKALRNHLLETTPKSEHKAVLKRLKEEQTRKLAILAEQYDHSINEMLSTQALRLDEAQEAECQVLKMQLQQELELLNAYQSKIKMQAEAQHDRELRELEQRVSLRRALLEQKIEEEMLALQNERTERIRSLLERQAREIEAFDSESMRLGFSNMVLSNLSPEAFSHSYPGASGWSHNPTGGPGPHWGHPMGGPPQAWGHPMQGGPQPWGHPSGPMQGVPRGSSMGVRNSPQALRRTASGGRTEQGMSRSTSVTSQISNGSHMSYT
The note with it: read-out: Remaining protein kinase activity.

For a further assay, the target named is CAMK1 (Homo sapiens, UniProt Q14012). The note with it: read-out: Remaining protein kinase activity.
The next assay concerns the target TrkA (Homo sapiens, UniProt P04629). Conditions: read-out: Remaining protein kinase activity.
For a further assay, the target named is CHK2 (Homo sapiens, UniProt O96017). The note with it: read-out: Remaining protein kinase activity.
CHK2, sequence (O96017 whole entry): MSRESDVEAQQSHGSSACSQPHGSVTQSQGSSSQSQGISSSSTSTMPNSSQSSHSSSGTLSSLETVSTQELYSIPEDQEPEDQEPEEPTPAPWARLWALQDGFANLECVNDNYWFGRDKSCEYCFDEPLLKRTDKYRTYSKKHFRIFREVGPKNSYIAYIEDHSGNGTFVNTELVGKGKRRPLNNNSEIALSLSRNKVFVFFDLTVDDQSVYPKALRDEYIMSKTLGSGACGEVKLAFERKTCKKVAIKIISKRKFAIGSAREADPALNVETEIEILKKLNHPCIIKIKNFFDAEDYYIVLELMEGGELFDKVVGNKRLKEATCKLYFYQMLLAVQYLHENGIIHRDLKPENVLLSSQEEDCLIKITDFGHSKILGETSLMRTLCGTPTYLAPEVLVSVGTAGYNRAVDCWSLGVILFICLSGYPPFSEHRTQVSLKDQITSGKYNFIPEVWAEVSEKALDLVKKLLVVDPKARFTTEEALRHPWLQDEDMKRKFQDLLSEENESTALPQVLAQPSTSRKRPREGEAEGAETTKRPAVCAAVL

IGF-1R, sequence (P08069 31-1367): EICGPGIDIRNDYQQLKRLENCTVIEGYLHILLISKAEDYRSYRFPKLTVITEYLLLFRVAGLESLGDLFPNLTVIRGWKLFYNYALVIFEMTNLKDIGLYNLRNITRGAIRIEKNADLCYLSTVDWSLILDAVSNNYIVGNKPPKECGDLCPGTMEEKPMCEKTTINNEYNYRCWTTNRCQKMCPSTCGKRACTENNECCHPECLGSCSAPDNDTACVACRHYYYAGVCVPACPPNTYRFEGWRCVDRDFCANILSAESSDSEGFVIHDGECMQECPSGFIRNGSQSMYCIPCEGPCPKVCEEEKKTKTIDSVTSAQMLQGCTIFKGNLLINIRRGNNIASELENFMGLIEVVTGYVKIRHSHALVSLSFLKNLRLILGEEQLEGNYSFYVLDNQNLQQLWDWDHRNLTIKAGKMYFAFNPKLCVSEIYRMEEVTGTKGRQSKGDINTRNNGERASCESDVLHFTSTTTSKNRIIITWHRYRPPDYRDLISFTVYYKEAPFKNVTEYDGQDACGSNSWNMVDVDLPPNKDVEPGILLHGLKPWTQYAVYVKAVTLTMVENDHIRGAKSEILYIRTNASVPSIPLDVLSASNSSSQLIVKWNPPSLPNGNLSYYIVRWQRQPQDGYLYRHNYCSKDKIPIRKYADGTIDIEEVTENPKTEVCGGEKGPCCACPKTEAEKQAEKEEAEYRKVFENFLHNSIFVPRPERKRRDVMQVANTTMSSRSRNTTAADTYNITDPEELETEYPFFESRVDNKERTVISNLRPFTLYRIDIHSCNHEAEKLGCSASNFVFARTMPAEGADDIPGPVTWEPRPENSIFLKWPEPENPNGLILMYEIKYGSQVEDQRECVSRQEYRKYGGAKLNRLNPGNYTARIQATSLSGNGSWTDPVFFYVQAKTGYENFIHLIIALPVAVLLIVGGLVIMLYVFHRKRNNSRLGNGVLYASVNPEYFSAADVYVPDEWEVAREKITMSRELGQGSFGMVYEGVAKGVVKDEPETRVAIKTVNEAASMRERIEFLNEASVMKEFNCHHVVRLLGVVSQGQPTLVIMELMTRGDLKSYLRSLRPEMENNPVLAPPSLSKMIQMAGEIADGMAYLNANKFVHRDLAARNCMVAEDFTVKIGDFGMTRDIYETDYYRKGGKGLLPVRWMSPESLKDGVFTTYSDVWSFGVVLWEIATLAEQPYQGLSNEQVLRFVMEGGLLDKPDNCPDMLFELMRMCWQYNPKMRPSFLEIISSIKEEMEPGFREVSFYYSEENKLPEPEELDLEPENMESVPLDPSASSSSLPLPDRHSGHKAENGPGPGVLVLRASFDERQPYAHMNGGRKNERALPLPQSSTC
TrkA, sequence (P04629 33-796): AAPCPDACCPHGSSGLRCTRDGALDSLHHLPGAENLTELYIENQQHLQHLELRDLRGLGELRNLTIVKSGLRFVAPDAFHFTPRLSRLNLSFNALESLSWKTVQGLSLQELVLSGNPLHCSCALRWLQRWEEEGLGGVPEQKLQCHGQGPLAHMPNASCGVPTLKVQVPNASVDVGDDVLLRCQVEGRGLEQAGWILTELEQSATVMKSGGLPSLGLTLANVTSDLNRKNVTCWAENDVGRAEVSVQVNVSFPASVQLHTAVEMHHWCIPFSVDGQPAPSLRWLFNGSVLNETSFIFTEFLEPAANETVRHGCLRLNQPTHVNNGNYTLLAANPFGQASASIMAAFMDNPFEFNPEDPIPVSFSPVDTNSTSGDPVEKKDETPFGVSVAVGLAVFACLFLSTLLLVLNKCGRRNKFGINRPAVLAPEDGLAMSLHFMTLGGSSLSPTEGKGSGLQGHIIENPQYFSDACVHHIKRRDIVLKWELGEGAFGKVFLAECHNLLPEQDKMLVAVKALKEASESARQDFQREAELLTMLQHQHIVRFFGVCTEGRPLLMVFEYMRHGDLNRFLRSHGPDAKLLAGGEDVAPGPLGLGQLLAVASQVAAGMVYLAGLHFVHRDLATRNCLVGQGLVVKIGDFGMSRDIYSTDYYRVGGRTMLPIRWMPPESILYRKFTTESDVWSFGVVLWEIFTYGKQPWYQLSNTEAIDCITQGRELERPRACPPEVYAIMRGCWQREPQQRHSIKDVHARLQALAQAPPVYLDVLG
SRPK1, sequence (Q96SB4 whole entry): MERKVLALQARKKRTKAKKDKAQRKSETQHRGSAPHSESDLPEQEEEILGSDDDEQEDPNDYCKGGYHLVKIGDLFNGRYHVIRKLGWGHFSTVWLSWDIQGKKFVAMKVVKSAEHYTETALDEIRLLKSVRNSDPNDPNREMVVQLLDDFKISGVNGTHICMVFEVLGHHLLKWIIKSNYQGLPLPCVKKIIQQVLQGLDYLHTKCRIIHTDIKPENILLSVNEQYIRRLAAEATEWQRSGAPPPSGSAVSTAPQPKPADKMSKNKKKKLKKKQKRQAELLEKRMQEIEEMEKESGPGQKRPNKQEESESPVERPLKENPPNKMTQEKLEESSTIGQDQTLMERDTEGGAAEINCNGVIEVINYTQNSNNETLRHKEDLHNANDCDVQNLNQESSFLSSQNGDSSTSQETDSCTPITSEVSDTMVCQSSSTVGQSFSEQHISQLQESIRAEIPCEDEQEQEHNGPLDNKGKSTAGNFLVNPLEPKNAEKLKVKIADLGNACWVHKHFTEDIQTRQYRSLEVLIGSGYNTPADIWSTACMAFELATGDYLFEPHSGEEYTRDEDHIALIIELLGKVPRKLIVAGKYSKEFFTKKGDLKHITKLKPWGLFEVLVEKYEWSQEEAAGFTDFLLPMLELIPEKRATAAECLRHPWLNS
DAPK1, sequence (P53355 whole entry): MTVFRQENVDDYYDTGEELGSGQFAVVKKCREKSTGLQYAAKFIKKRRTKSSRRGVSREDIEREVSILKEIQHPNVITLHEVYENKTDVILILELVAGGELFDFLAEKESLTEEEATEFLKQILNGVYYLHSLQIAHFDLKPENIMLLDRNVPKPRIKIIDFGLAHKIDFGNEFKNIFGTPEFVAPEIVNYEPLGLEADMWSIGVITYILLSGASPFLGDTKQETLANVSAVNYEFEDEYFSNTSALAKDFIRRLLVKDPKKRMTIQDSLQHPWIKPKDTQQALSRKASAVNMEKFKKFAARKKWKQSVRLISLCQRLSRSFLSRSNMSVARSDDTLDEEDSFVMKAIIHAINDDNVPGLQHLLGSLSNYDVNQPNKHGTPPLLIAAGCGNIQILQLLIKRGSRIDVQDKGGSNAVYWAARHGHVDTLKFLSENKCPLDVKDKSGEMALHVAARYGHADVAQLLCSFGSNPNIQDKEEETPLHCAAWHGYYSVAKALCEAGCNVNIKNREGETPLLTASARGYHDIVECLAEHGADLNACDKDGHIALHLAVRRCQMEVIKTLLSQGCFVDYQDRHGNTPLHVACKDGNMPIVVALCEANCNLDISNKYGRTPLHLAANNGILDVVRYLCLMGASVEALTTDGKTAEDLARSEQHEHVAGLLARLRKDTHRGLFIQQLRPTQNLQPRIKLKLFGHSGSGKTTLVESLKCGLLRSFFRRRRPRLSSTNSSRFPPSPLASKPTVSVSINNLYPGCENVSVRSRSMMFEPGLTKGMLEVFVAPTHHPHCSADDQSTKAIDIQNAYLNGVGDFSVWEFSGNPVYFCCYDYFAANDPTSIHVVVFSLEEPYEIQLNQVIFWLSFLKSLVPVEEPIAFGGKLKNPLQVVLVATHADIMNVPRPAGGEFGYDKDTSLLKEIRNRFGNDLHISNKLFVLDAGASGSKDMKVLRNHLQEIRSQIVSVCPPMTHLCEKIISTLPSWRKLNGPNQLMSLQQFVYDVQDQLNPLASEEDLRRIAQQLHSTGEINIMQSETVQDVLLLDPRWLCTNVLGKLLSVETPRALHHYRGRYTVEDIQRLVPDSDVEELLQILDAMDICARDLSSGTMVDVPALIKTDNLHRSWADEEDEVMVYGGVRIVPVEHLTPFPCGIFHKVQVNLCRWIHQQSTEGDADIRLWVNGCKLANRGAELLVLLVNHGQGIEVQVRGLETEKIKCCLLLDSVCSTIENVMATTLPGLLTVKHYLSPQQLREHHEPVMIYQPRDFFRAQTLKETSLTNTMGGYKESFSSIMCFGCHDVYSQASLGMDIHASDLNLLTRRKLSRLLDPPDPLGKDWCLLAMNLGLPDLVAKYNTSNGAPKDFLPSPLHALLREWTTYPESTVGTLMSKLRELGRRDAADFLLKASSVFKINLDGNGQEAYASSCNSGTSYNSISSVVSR
CAMK1, sequence (Q14012 whole entry): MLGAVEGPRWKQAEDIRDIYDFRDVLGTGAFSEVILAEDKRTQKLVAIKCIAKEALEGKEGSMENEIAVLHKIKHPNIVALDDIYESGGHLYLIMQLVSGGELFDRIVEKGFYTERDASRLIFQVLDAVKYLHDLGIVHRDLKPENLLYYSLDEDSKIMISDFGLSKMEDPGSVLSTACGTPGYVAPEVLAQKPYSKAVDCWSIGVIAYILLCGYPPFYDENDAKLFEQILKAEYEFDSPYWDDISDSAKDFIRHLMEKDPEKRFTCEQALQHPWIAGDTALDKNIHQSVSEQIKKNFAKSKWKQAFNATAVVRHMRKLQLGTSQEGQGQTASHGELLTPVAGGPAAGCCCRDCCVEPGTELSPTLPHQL

A word on the remaining activity: it is the signal under treatment as a percentage of the control signal. In the case of `COc1ccc2sc(-c3cncc(N)c3)nc2c1` [compound 1, 5-(5-Methoxybenzo[d]thiazol-2-yl)pyridin-3-amine], the figures for the “Remaining protein kinase activity” value at JAK2 (1 μM) and on JAK2 (100 μM) were 117% and 55%, respectively. The remaining activity at 1 µM was determined as 119% at p38b MAPK (p38b MAPK, 1 μM); 96% on IGF-1R (IGF-1R, 1 μM); 103% on DAPK1 (DAPK1, 1 μM); 105% at GCK (GCK, 1 μM); 108% at SRPK1 (SRPK1, 1 μM); 98% at SmMLCK. The remaining activity at 1 µM worked out at 97% on TAO1 (TAO1, 1 μM); 99% at CAMK1 (CAMK1, 1 μM); 104% on TrkA (TrkA, 1 μM); 114% at CHK2 (CHK2, 1 μM). The remaining activity at 100 µM came to 101% on p38b MAPK (p38b MAPK, 100 μM); 68% on IGF-1R (IGF-1R, 100 μM); 58% at DAPK1 (DAPK1, 100 μM); 28% at GCK (GCK, 100 μM); 55% on SRPK1 (SRPK1, 100 μM); 41% on SmMLCK. Besides, the remaining activity at 100 µM at TAO1 (TAO1, 100 μM) was 57%; at CAMK1 (CAMK1, 100 μM), 52%; at TrkA (TrkA, 100 μM) it was 33%; on CHK2 (CHK2, 100 μM), 52%.
In the case of `COc1ccc2sc(-c3cncc(NC(C)=O)c3)nc2c1` [PST-001, N-(5-(5-Methoxybenzo[d]thiazol-2-yl)pyridin-3-yl)acetamide], the “Remaining protein kinase activity” value amounted to 123% at JAK2 (1 μM) and 125% at JAK2 (100 μM). In addition, the remaining activity at 100 µM came to 115% at p38b MAPK; 104% on IGF-1R; 101% at DAPK1; 123% at GCK; 108% on SRPK1; 99% on SmMLCK. Also, the remaining activity at 100 µM was 111% on TAO1, 100% on CAMK1, 45% on TrkA and 85% on CHK2. Moreover, the remaining activity at 1 µM on IGF-1R stood at 104%; on DAPK1, 114%; at GCK, 118%; at SRPK1 it was 115%; on SmMLCK, 118%; on TAO1, 102%. The remaining activity at 1 µM was 111% on TrkA and 105% on CHK2.
